Entries after “also recorded” stand apart in the source; their conditions may differ.

For the first experiment, the system named is bacteria, fungi, and/or yeasts. It is filed as binding. As to conditions: microorganism(s) listed as target(s) of the targeting peptide; wrapped target lists given cell by cell.
Take “1T-249 (VFSVLKHTTWPTRKQSWHDFISILEYSAFFALVIFIFDKLLTLGLAELLKRF)”: the “Target(s)” value is “F. nucleatum, S. sanguinis”.

Turning to “1T-250 (LVQGDTILIENHVGTPVKDDGKDCLIIREADVLAVVND)”, the “Target(s)” value is on record as “S. mitis, S. mutans, S. oralis”.

Take 1T-252 (MKKNLKRFYALVLGFIIGCLFVSILIFIGY): the “Target(s)” value is reported as “F. nucleatum, S. sanguinis”.

As for “1T-253 (KTKESLTQQEKKFLKDYDRKSLHHFRDILTYCFILDKLTNK)”, the “Target(s)” value is given as “A. naeslundii, F. nucleatum, P. gingivalis,; also recorded: S. epidermidis, S. gordonii,; also recorded: S. mitis, S. mutans, S. oralis,; also recorded: S. salivarious, S. sanguinis”. On to 1T-256 (KGKSLMPLLKQINQWGKLYL), for which the “Target(s)” value is reported as “S. sanguinis”. For “1T-257 (IILAKAADLAEIERIISEDPFKINEIANYDIIEFCPTKSSKAFEKVLK)”, the “Target(s)” value is on record as “A. naeslundii, F. nucleatum, P. gingivalis,; also recorded: S. epidermidis, S. gordonii,; also recorded: S. mitis, S. mutans, S. oralis,; also recorded: S. salivarious, S. sanguinis”. As for 1T-258 (TINIDDKVLDYLKKINSKAITIDLIGCAS), the “Target(s)” value is on record as “A. naeslundii, F. nucleatum, P. gingivalis,; also recorded: T. denticola, S. mitis,; also recorded: S. mutans, S. oralis”. Still for that read-out and setting: the entry for 1T-259 (EKLKKILLKLAVCGKAWYTL) is “F. nucleatum, P. gingivalis, T. denticola,; also recorded: S. mitis, S. mutans, S. oralis,; also recorded: S. sanguinis”; for “1T-260 (NILYFIHDENQWEPQKAEIFRGSIKHCAWLSS)” it is “A. naeslundii, P. gingivalis, S. epidermidis,; also recorded: S. gordonii, S. mitis,; also recorded: S. mutans, S. oralis, S. sanguinis”.

Consider 1T-261 (SFEKNKIENNLKIAQAYIYIKPKPRICQA), for which the “Target(s)” value is reported as “F. nucleatum, S. mutans, S. oralis,; also recorded: S. sanguinis”. The same measure, in the same setting: the entry for 1T-262 (LSLPLIVLTKSI) is “A. naeslundii, F. nucleatum, P. gingivalis,; also recorded: S. epidermidis, S. gordonii,; also recorded: S. mitis, S. mutans, S. oralis,; also recorded: S. salivarious, S. sanguinis”; for 1T-263 (FIAVSFTGNPATFKLVIGCKADN) it is “A. naeslundii, F. nucleatum, P. gingivalis,; also recorded: S. epidermidis, S. gordonii,; also recorded: S. mitis, S. oralis, S. salivarious,; also recorded: S. sanguinis”. 1T-264 (LEGKFYMAEDFDKTPECFKDYV): the “Target(s)” value is “S. sanguinis”. Take 1T-265 (GMFENLLMINFQIMNDLKIEIVVKDRICAV): the “Target(s)” value is listed as “A. naeslundii, F. nucleatum, P. gingivalis,; also recorded: S. epidermidis, S. gordonii,; also recorded: S. mitis, S. mutans, S. oralis,; also recorded: S. salivarious, S. sanguinis”. For the substance 1T-266 (RAGTWLVVDEIR), the “Target(s)” value is reported as “S. sanguinis”. Consider 1T-267 (RIKEERKNRSYKFFIWRLFDEKTGFI), for which the “Target(s)” value is “A. naeslundii, F. nucleatum, P. gingivalis,; also recorded: T. denticola, S. mitis,; also recorded: S. mutans, S. oralis, S. sanguinis”. 1T-268 (PITPKKEKCGLGTYAPKNPVFSKSRV): the “Target(s)” value is on record as “F. nucleatum, S. mutans, S. oralis,; also recorded: S. sanguinis”. In the case of 1T-269 (PLYVAAVEKINTAKKH), the “Target(s)” value is listed as “F. nucleatum, S. mutans, S. oralis,; also recorded: S. sanguinis”. The same measure, in the same setting: the value for 1T-270 (VHEFDIQKILQNR) was “F. nucleatum, S. mutans, S. oralis,; also recorded: S. sanguinis”. On the same count and under the same terms, the entry for 1T-271 (FLIQKFLLIKTFPPYRKKYVVIVSQTGTA) is “A. naeslundii, F. nucleatum, P. gingivalis,; also recorded: S. epidermidis, S. gordonii,; also recorded: S. mitis, S. mutans, S. oralis,; also recorded: S. salivarious, S. sanguinis”; for “1T-272 (QLAPIDKQLKAVKKIAFYESESTAAKAVTVA)” it is “F. nucleatum, S. mutans, S. oralis,; also recorded: S. sanguinis”; for “1T-273 (YNEPNYKWLESYKIYKQRCEDRTGMYYTEET)” it is “F. nucleatum, P. gingivalis, T. denticola,; also recorded: S. mitis, S. mutans, S. oralis”. As to 1T-274 (ETTTEINAIKLHRIKQRSPQGTRRVN), the “Target(s)” value is recorded as “F. nucleatum, S. mutans, S. oralis,; also recorded: S. sanguinis”.

Take 1T-275 (QVLKNFSISRRYKINNPFFKILLFIQLRTL): the “Target(s)” value is given as “A. naeslundii, F. nucleatum, P. gingivalis,; also recorded: T. denticola, S. epidermidis,; also recorded: S. gordonii, S. mitis,; also recorded: S. mutans, S. oralis, S. salivarious,; also recorded: S. sanguinis”. Same read-out and setting: the entry for 1T-276 (ILTLLILGSIGFFILKIKLKLGRF) is “A. naeslundii, F. nucleatum, P. gingivalis,; also recorded: S. epidermidis, S. gordonii,; also recorded: gordonii, S. mitis, S. mutans, S. oralis,; also recorded: S. sanguinis”. Still for that read-out and setting: the entry for 1T-277 (IYYMRFVNKPLEKTFFKI) is “A. naeslundii, F. nucleatum, P. gingivalis,; also recorded: T. denticola, S. gordonii,; also recorded: S. mitis, S. mutans, S. oralis,; also recorded: S. salivarious, S. sanguinis”; for 1T-278 (SINSSAGIQPHCLSSSFVLRTKHCFY) it is “A. naeslundii, F. nucleatum, P. gingivalis,; also recorded: S. gordonii, S. mitis,; also recorded: S. mutans, S. oralis, S. salivarious,; also recorded: S. sanguinis”. On the same count and under the same terms, the value for 1T-279 (FVLRTKHCFY) was “A. naeslundii, F. nucleatum, P. gingivalis,; also recorded: S. gordonii, S. mitis,; also recorded: S. mutans, S. oralis, S. salivarious,; also recorded: S. sanguinis”.

Staying with this experiment, now noted: microorganism(s) the targeting peptide binds, as listed in Table 2.
As for “1T-200 (MRFKRFDRDYALSGDNVFEVLTASCDVIERNLSYREMCGLMQ)”, the “Target(s)” value is “A. naeslundii, F. nucleatum, S. epidermidis,; also recorded: S. gordonii, S. mitis,; also recorded: S. mutans, S. oralis, S. salivarious,; also recorded: S. sanguinis”. Consider 1T-201 (KRKHENVIVAEEMRVIKN), for which the “Target(s)” value is listed as “S. sanguinis”.

As for “1T-202 (LCRLEKLCKQFLRQDKVVTYYLMLPYKRAIEAFYQELKERS)”, the “Target(s)” value is on record as “A. naeslundii, F. nucleatum, P. gingivalis,; also recorded: S. epidermidis, S. gordonii,; also recorded: S. mitis, S. mutans, S. oralis,; also recorded: S. salivarious, S. sanguinis”. The same measure, in the same setting: the entry for “1T-203 (YPFCLATVDHLPEGLSVTDYERVQRLVSQFLLNKEER)” is “A. naeslundii, F. nucleatum, P. gingivalis,; also recorded: S. epidermidis, S. gordonii,; also recorded: S. mitis, S. mutans, S. oralis,; also recorded: S. salivarious, S. sanguinis”. The same measure, in the same setting: the value for 1T-207 (SPLEKYGTGSMTALTFLLGCCLLVLSKKSR) was “F. nucleatum, S. sanguinis”. On to “1T-215 (VCFKDISVFLSPFRGQEVLFCGKAKHSLIYVIGT)”, for which the “Target(s)” value is reported as “S. sanguinis”. Same read-out and setting: the value for 1T-216 (FFLNVIAIRIPHF) was “S. sanguinis”; that for “1T-217 (MLSNVLSRSVVSPNVDIPNSMVILSPLLISISNYH)” was “F. nucleatum, S. sanguinis”; that for 1T-218 (KLIFAALGLVFLLIGLRDSRSK) was “F. nucleatum, S. sanguinis”.

In the case of 1T-219 (RNINVSATFITEKSLV), the “Target(s)” value is reported as “S. sanguinis”. In the case of “1T-221 (DIGRIIGKKGRTITAIRSIVYSVPTQGKKVRLVIDEK)”, the “Target(s)” value is recorded as “A. naeslundii, F. nucleatum, P. gingivalis,; also recorded: S. epidermidis, S. gordonii,; also recorded: S. mitis, S. mutans, S. oralis,; also recorded: S. salivarious, S. sanguinis”. Same read-out and setting: the value for 1T-222 (RIEASLISAIMFSMFNAIVKFLQK) was “F. nucleatum, S. sanguinis”; that for “1T-223 (NQKMEINSMTSEKEKMLAGHFHNEANFAVIFKYSLFYNFF)” was “A. naeslundii, F. nucleatum, P. gingivalis,; also recorded: S. epidermidis, S. gordonii,; also recorded: S. mitis, S. mutans, S. oralis,; also recorded: S. salivarious, S. sanguinis”. “1T-225 (RRSLGNSASFAEWIEYIRYLHYIIRVQFIHFFSKNKKI)”: the “Target(s)” value is “A. naeslundii, F. nucleatum, P. gingivalis,; also recorded: S. epidermidis, S. gordonii,; also recorded: S. mitis, S. mutans, S. oralis,; also recorded: S. salivarious, S. sanguinis”.

As for “1T-226 (KLQEKQIDRNFERVSGYSTYRAVQAAKAKEKGFISLEN)”, the “Target(s)” value was “A. naeslundii, F. nucleatum, S. epidermidis,; also recorded: S. gordonii, S. mitis,; also recorded: S. mutans, S. oralis, S. salivarious,; also recorded: S. sanguinis”. Still for that read-out and setting: the value for “1T-228 (IFKLFEEHLLYLLDAFYYSKIFRRLKQGLYRRKEQPYTQDLFRM)” was “A. naeslundii, F. nucleatum, P. gingivalis,; also recorded: S. epidermidis, S. gordonii,; also recorded: S. mitis, S. mutans, S. oralis,; also recorded: S. salivarious, S. sanguinis”; that for “1T-230 (EFLEKFKVLKQPRKANNISKNRVAMIFLTIHKSRGFLSSPY)” was “A. naeslundii, F. nucleatum, P. gingivalis,; also recorded: S. epidermidis, S. gordonii,; also recorded: S. mitis, S. mutans, S. oralis,; also recorded: S. salivarious, S. sanguinis”; that for “1T-233 (TDQELEHLIVTELESKRLDFTYSKDITEFFDEAFPEYDQNY)” was “A. naeslundii, P. gingivalis, S. epidermidis,; also recorded: S. gordonii, S. mitis,; also recorded: S. mutans, S. oralis, S. salivarious,; also recorded: S. sanguinis”. Consider “1T-234 (DNFYLILKMEERGKSKKTSQTRGFRAFFDIIRKKIKKEDGK)”, for which the “Target(s)” value is “A. naeslundii, F. nucleatum, P. gingivalis,; also recorded: S. epidermidis, S. gordonii,; also recorded: S. mitis, S. mutans, S. oralis,; also recorded: S. salivarious, S. sanguinis”. Same read-out and setting: the value for 1T-237 (EDPVPNHFTLRRNKKEKPSKS) was “S. sanguinis”. For “1T-238 (IFNRRKFFQYFGLSKEAMVEHIQPFILDIWQIHLF)”, the “Target(s)” value is listed as “A. naeslundii, F. nucleatum, P. gingivalis,; also recorded: S. epidermidis, S. gordonii,; also recorded: S. mitis, S. mutans, S. oralis,; also recorded: S. salivarious, S. sanguinis”. On the same count and under the same terms, the value for 1T-239 (ADDLLNKRLTDLIMENAETVKTIDLDNSD) was “A. naeslundii, S. gordonii, S. mitis,; also recorded: S. mutans, S. oralis, S. sanguinis”; that for “1T-240 (VILGNGISNIAQTLGQLPNIAWVWIYMVLIAALLEESNVC)” was “A. naeslundii, F. nucleatum, P. gingivalis,; also recorded: S. epidermidis, S. gordonii,; also recorded: S. mitis, S. mutans, S. oralis,; also recorded: S. salivarious, S. sanguinis”. 1T-242 (KQVQNTTLIICGTVLLGILFKSYLKSQKSV): the “Target(s)” value is given as “F. nucleatum, S. sanguinis”. Turning to “1T-243 (SENIARFAAAFENEQVVSYARWFRRSWRGSGSSSRF)”, the “Target(s)” value is recorded as “A. naeslundii, P. gingivalis, S. epidermidis,; also recorded: S. gordonii, S. mitis,; also recorded: S. mutans, S. oralis, S. salivarious,; also recorded: S. sanguinis”.

Take 1T-248 (IGGALNSCG): the “Target(s)” value is “S. sanguinis”.
